{"source": "patent US20220211876A1", "about": "“LESION DETECTION METHOD” (MIE UNIVERSITY, priority 2019, published 2022)", "key": {"RAS": {"test_system": "RAS", "assay": "Staining of cells that overexpress a cancer-related gene product (RAS)", "assay_type": "cell-based", "from_the_text": "For the visualization of expression patterns of cancer-related genes in living cells, the inventors stained a cancer-related gene product to chromatic color using staining agents containing edible dyes and photographed. An edible dye is a natural or artificial dye which has been permitted to be administered to human (For example, a dye for food coloring, or a dye that can be taken as supplements). Specifically, a staining agent containing curcumins (C21H20O6) can be used to selectively stain a STAT3-based cancer-related gene product. In addition, a staining agent containing Red #3 (erythrosine) can be used to selectively stain the expression pattern of ras-based cancer-related gene. More specifically, as a staining agent containing curcumins, a solution containing 1% by weight of curcumin was prepared. As a staining agent containing Red #3, a solution containing 1% by weight of […] was prepared. As a staining agent containing curcumins, a curcumin solution 5˜100-fold diluted from its stock solution (for example, a liquid containing 5% curcumin solution, 45% glycerol, and 50% ethanol) with physiological saline can be used. […] Accordingly, the nucleus surrounded by the cytoplasm is clearly visualized, making it clearer to be analyzed."}, "[1]": {"assay": "Fluorescent color by laser irradiation", "assay_type": "physicochemical", "from_the_text": "Regarding staining an organ tissue, the object in the organ to be visualized differs depending on the staining agent used. For example, curcumin and Red #3 are suitable for staining epithelial and glandular cells, as well as cancerous cells derived from them. On the other hand, Red #106 is suitable for staining connective tissue and capillaries. By laser irradiation, curcumin gives a green fluorescent color, while Red #3 and Red #106 give a red fluorescent color. Therefore, double staining with curcumin and Red #106 makes it easier to identify structure of cells in tissue by superimposing stained images. Accordingly, micro cancer tissue with diameter of about 1 mm and invasive cancer cell groups can be detected.\n(§1) A multiphoton laser microscope of FVMPE-RS (Olympus) was used with the irradiation wavelength of 800 nm, wherein the laser irradiation was performed at 5.8˜48.2% of its full power output. A confocal laser microscope of FV1000 (Olympus) was used with the irradiation wavelength of 488 nm and 594 nm, wherein the laser irradiation at 488 nm was performed at 15˜29.4% of its full power output, and the laser irradiation at 594 nm was performed at 13˜13.5% of its full power output."}, "[2]": {"test_system": "large intestine of a mouse (normal mucosal tissue)", "assay": "Vital staining of normal mouse large intestine, imaging with multiphoton or confocal laser microscope", "assay_type": "in vivo", "conditions": "for structures stained in double staining: curcumin and Red #106 from lumen side, FIG. 4", "method": "(§2) 100 mg of curcumin (Tokyo Kasei, cat. #C2302, purity 97.0%) was suspended in 5 mL of ethanol, and further diluted 10-fold with ethanol. It was mixed with the same amount of glycerin, and further diluted 10-fold with glycerin. The mixture was mixed with the same amount of purified water to obtain a staining solution of curcumin. Regarding Red #106, its staining solution is obtained by dissolving the powder in saline to achieve a concentration of 1 mg/mL.\n(§3) C57BL/6N mice purchased from Japan SLC, Inc. were used in the tests. All tests were performed on male, 8-week-old mice weighing 20˜25 grams.\nas §1"}, "[3]": {"test_system": "Auerbach's plexus in large intestine", "assay": "Curcumin staining of freshly resected colon of a patient with Hirschsprung-like disease, multiphoton laser microscope", "set-up": "species or system human", "method": "In an embodiment of the present invention, curcumin was administered to a freshly resected colon from a patient with Hirschsprung-like disease, and then a multiphoton laser microscope was used to visualize Auerbach's plexus. […] (FIG. 39). Therefore, intraoperative rapid diagnosis by a multiphoton laser microscope of freshly resected large intestine of a patient with Hirschsprung-like disease can be performed and appropriate surgical resection sites can be confirmed."}, "[4]": {"test_system": "optic nerve and optic ganglion cells of retina", "assay": "Vital staining of retina by intraperitoneal administration, laser microscope", "assay_type": "in vivo, mouse", "conditions": "curcumin vital staining", "from_the_text": "FIG. 38 is a diagram of visualization of optic nerves and the optic ganglion cells of retina in vivo after vital staining by intraperitoneal administration of sulforhodamine 101 and curcumin to a mouse. (A) is a diagram of visualization of blood vessels fluorescently labeled with sulforhodamine 101 and a bundle of optic nerve fluorescence-labeled with curcumin. […] In an embodiment of the present invention, the nerve cell layer of retina can be visualized by vital staining with curcumin (FIG. 37). According to FIG. 37, it can be seen that in the layer structure of retina, the cell layer of optic ganglion, inner plexiform layer, bipolar cell layer, outer plexiform layer, and outer nuclear layer can be identified. It can be seen that the blood vessel travel and the optic nerve bundle in retina can be visualized at the same time by double staining with blood vessel staining dye (sulforhodamine 101) and curcumin (FIG. 38A). […] Accordingly, the present invention is very useful for detecting retinal diseases."}, "[5]": {"test_system": "olfactory receptor neurons", "assay": "Vital staining by coating onto nasal mucosa, laser microscope", "assay_type": "in vivo, mouse", "conditions": "coating on nasal mucosa", "from_the_text": "FIG. 26 is a diagram showing, at high magnification, examples of visualization with a multiphoton laser microscope of olfactory receptor neurons, which are odor sensory cells, after vital staining by coating curcumin onto nasal mucosa of a mouse. […] Since a nucleus is not stained, it is viewed as a black negative image. By coating curcumin on nasal mucosa, olfactory receptor neuronal cells, which are odor sensing cells, can be visualized. Accordingly, olfactory disorders can be examined."}, "[6]": {"test_system": "nerve fibers (myelin sheath)", "assay": "Vital staining of nerve fibers, multiphoton laser microscope", "assay_type": "in vivo, mouse", "conditions": "intraperitoneal administration, FIG. 25", "from_the_text": "FIG. 25 is a diagram showing, at high magnification, examples of visualization with a laser multiphoton microscope of olfactory nerve fibers after vital staining by intraperitoneal administration of curcumin to a mouse."}, "taste bud": {"test_system": "taste bud", "assay": "Vital staining by coating onto tongue mucosa, laser microscope", "assay_type": "in vivo, mouse", "conditions": "coating on tongue mucosa", "from_the_text": "FIG. 20 is a diagram showing, at high magnification, an example of visualization with a multiphoton laser microscope of a taste bud, which is a taste sensory device, after vital staining by coating curcumin onto tongue mucosa of a mouse. FIG. 20 to FIG. 22 are diagrams in which a taste bud, a taste sensory device, is visualized by a laser microscope after vital staining by coating curcumin on mouse tongue mucosa. FIG. 20 and FIG. 21 further show hematoxylin-eosin staining images of taste buds. The nuclei of sensory neuronal cells are not stained with curcumin, so that they are recognized as black negative images. By coating curcumin on oral mucosa, the neuronal cells of a taste bud, which is a taste sensory device, can be visualized. Accordingly, taste disorders can be examined in otolaryngologic field."}, "[7]": {"test_system": "large intestine (cancer tumor site) of a colon cancer mouse", "assay": "Vital staining of the cancer tumor site of a colon cancer mouse, laser microscope imaging", "assay_type": "in vivo", "method": "as §2, §3\nModel mice with colon cancer were prepared by intraperitoneally administering 10 mg/kg of azoxymethane (AOM) dissolved in saline 4 times at weekly intervals to the C57BL/6N mice.\nas §1"}, "STAT3": {"target": "T1, STAT3 (Homo sapiens, UniProt P40763)", "T1 construct": "endogenous in cells", "T1 sequence (P40763 whole entry, species assumed)": "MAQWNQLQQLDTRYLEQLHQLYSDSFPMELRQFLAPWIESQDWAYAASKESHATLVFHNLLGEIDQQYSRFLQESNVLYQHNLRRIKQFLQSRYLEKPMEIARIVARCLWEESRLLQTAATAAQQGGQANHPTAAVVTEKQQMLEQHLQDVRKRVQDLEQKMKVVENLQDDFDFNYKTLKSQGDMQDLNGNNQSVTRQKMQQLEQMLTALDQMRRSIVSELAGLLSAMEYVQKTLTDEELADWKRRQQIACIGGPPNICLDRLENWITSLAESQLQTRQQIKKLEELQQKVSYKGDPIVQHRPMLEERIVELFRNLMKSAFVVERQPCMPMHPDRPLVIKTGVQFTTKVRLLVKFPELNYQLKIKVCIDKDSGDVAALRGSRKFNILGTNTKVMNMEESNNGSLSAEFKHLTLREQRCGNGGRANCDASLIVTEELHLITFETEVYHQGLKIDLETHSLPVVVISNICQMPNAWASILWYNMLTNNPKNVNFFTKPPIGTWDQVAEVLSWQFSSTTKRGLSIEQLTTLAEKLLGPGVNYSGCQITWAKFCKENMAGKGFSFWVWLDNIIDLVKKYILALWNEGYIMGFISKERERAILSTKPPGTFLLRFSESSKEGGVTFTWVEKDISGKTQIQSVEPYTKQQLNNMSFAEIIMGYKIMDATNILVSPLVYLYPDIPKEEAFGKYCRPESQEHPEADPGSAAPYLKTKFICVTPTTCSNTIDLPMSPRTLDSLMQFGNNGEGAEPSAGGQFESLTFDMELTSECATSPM", "assay": "Staining of cells that overexpress a cancer-related gene product (STAT3)", "assay_type": "cell-based", "from_the_text": "For the visualization of expression patterns of cancer-related genes in living cells, the inventors stained a cancer-related gene product to chromatic color using staining agents containing edible dyes and photographed. An edible dye is a natural or artificial dye which has been permitted to be administered to human (For example, a dye for food coloring, or a dye that can be taken as supplements).\nSpecifically, a staining agent containing curcumins (C21H20O6) can be used to selectively stain a STAT3-based cancer-related gene product. In addition, a staining agent containing Red #3 (erythrosine) can be used to selectively stain the expression pattern of ras-based cancer-related gene.\nMore specifically, as a staining agent containing curcumins, a solution containing 1% by weight of curcumin was prepared. As a staining agent containing Red #3, a solution containing 1% by weight of phloxine was prepared. […]\nWhen a staining agent containing curcumins is used, the expression of a STAT3-based cancer-related gene product in living cells can be visualized by staining. […] Accordingly, the nucleus surrounded by the cytoplasm is clearly visualized, making it clearer to be analyzed."}, "[8]": {"conditions": "normal large intestine, five-layer structure"}, "[9]": {"conditions": "isolated large intestine, stained from serosa side"}, "[10]": {"conditions": "normal mucosal tissue of large intestine, FIG. 3"}, "[11]": {"conditions": "stained and photographed from luminal side"}}, "note": "“Also recorded” adds a separate entry of the source.", "data": [{"smiles": "O=C1OC2(c3ccccc31)c1cc(I)c(O)c(I)c1Oc1c2cc(I)c(O)c1I", "note": "[Red #3, erythrosine]", "values": [{"measurement": "staining of cells that overexpress RAS", "setting": "RAS", "result": "can stain"}, {"measurement": "fluorescent color", "setting": "[1]", "result": "red"}]}, {"smiles": "CCN(CC)c1ccc2c(-c3ccc(S(=O)(=O)[O-])cc3S(=O)(=O)[O-])c3ccc(=[N+](CC)CC)cc-3oc2c1.[Na+]", "note": "[Red #106]", "values": [{"measurement": "fluorescent color", "setting": "[1]", "result": "red"}, {"measurement": "structures stained in double staining", "setting": "[2]; isolated large intestine", "result": "connective tissue, capillaries and cell membranes of epithelial and glandular cells"}, {"measurement": "staining of the network of capillaries surrounding the glandular structures of epithelial and glandular layers (1)", "setting": "[2]; [8]", "result": "strongly positively"}, {"measurement": "staining of the smooth muscle in muscle layer (4)", "setting": "[2]; [8]", "result": "slightly positively; also recorded: strongly stained; also recorded: strongly positively"}, {"measurement": "staining of the smooth muscle in muscularis mucosae (2)", "setting": "[2]; [8]", "result": "slightly positively; also recorded: moderately positively"}, {"measurement": "staining of the wall of a thick blood vessel inside muscle layer", "setting": "[2]; [8]", "result": "strongly positively; also recorded: strongly stained"}]}, {"smiles": "COc1cc(/C=C/C(=O)CC(=O)/C=C/c2ccc(O)c(OC)c2)ccc1O", "note": "[curcumin]", "values": [{"measurement": "identification of the normal part and malformation part of Auerbach's plexus", "setting": "[3]", "result": "clearly identified"}, {"measurement": "signal of the cytoplasm of optic nerve and small/large ganglion cells", "setting": "[4]", "result": "positive signal"}, {"measurement": "signal of the nucleus of optic nerve and small/large ganglion cells", "setting": "[4]", "result": "negative signal"}, {"measurement": "staining of cytoplasm of olfactory receptor neurons and cilia having odor receptors", "setting": "[5]", "result": "stained positively"}, {"measurement": "staining of nucleus of olfactory receptor neurons", "setting": "[5]", "result": "not stained"}, {"measurement": "fluorescent color", "setting": "[1]", "result": "green"}, {"measurement": "staining of myelin sheath", "setting": "[6]", "result": "can stain myelin sheath"}, {"measurement": "structures stained in double staining", "setting": "[2]; isolated large intestine", "result": "cytoplasm of epithelial and glandular cells"}, {"measurement": "staining of nerve fibers of Auerbach's plexus", "setting": "[2]; [9]", "result": "moderately"}, {"measurement": "staining of perikaryon of Auerbach's plexus", "setting": "[2]; [9]", "result": "strongly"}, {"measurement": "staining of Auerbach's plexus inside muscle layer", "setting": "[2]; [8]", "result": "strongly positively"}, {"measurement": "staining of epithelial and glandular cells in epithelial and glandular layers (1)", "setting": "[2]; [8]", "result": "strongly positively"}, {"measurement": "staining of the smooth muscle in muscle layer (4)", "setting": "[2]; [8]", "result": "slightly positively"}, {"measurement": "staining of the smooth muscle in muscularis mucosae (2)", "setting": "[2]; [8]", "result": "moderately positively; also recorded: severely positively"}, {"measurement": "staining of the cytoplasm of epithelial cells and gland cells", "setting": "[2]; [10]", "result": "stained"}, {"measurement": "staining of the nucleus of epithelial cells and gland cells", "setting": "[2]; [10]", "result": "not stained"}, {"measurement": "staining of the nucleus in perikaryon of Meissner's plexus", "setting": "[2]; stained from serosa side", "result": "does not stain the nucleus"}, {"measurement": "staining of the nucleus in perikaryon of Auerbach's plexus", "setting": "[2]; stained from serosa side, high magnification", "result": "does not stain the nucleus"}, {"measurement": "staining of nuclei of sensory neuronal cells of taste bud", "setting": "taste bud", "result": "not stained"}, {"measurement": "staining of cancer cells relative to surrounding or normal tissue", "setting": "[7]; cancer cells versus surrounding tissue / normal cells", "result": "darker than surrounding tissue"}, {"measurement": "staining of cytoplasm of cancer cells", "setting": "[7]; [11]", "result": "severely positively"}, {"measurement": "staining of nuclei of cancer cells", "setting": "[7]; [11]", "result": "negatively"}, {"measurement": "staining of cells that overexpress STAT3", "setting": "STAT3", "result": "can stain cells that overexpress STAT3"}]}]}
